Our source for the IC50 values is patent US20100311714A1, “1H-IMIDAZO[4,5-c]QUINOLINONE COMPOUNDS” (priority 2009, published 2010).

Some results are limits rather than exact numbers.

This experiment deals with PKB Ser473 phosphorylation in Rat1-myr-HA-p110 beta cells. Kind of experiment: Reverse protein array, PKB Ser473 phosphorylation in Rat1-myr-HA-p110 beta cells. Format: cell-based. The settings on record: Rattus norvegicus, 0.5 h, 30 minutes compound incubation, read-out: p-PKB/IC50_beta.
As for `CNc1ncc(-c2ccc3ncc4c(c3c2)n(-c2ccc(N3CC(O)C3)nc2C)c(=O)n4C)cc1C(F)(F)F` [Example 29.4, 1-[6-(3-Hydroxy-azetidin-1-yl)-2-methyl-pyridin-3-yl]-3-methyl-8-(6-methylamino-5-trifluoromethyl-pyridin-3-yl)-1,3-dihydro-imidazo[4,5-c]quinolin-2-one], the IC50 amounted to 0.0219 µM.

With `COc1cc(-c2ccc3ncc4c(c3c2)n(-c2ccc(N3CC(O)C3)nc2C)c(=O)n4C)cnc1CO` [Example 29.5, 1-[6-(3-Hydroxy-azetidin-1-yl)-2-methyl-pyridin-3-yl]-8-(6-hydroxymethyl-5-methoxy-pyridin-3-yl)-3-methyl-1,3-dihydro-imidazo[4,5-c]quinolin-2-one], the IC50 worked out at 0.373 µM.

As to `COc1ncc(-c2ccc3ncc4c(c3c2)n(-c2ccc(N3CC(O)C3)nc2C)c(=O)n4C)c(OC)n1` [Example 29.6, 8-(2,4-Dimethoxy-pyrimidin-5-yl)-1-[6-(3-hydroxy-azetidin-1-yl)-2-methyl-pyridin-3-yl]-3-methyl-1,3-dihydro-imidazo[4,5-c]quinolin-2-one], the IC50 amounted to 0.208 µM.

On to `CNc1ncc(-c2ccc3ncc4c(c3c2)n(-c2ccc(C(C)(C)O)nc2C)c(=O)n4C)cc1F` [Example 31.1, 8-(5-Fluoro-6-methylamino-pyridin-3-yl)-1-[6-(1-hydroxy-1-methyl-ethyl)-2-methyl-pyridin-3-yl]-3-methyl-1,3-dihydro-imidazo[4,5-c]quinolin-2-one], for which the IC50 was determined as 0.0193 µM.

As to `CNc1ncc(-c2ccc3ncc4c(c3c2)n(-c2ccc(N3CC[C@H](O)C3)nc2C)c(=O)n4C)cn1` [Example 32.1, 1-[6-((S)-3-Hydroxy-pyrrolidin-1-yl)-2-methyl-pyridin-3-yl]-3-methyl-8-(2-methylamino-pyrimidin-5-yl)-1,3-dihydro-imidazo[4,5-c]quinolin-2-one], the IC50 was less than 0.00457 µM.

On to `CNc1ncc(-c2ccc3ncc4c(c3c2)n(-c2ccc(N3CC[C@H](O)C3)nc2C)c(=O)n4C)cc1F` [Example 32.2, 8-(5-Fluoro-6-methylamino-pyridin-3-yl)-1-[6-((S)-3-hydroxy-pyrrolidin-1-yl)-2-methyl-pyridin-3-yl]-3-methyl-1,3-dihydro-imidazo[4,5-c]quinolin-2-one], for which the IC50 was 0.0152 µM.

Take `COc1ncc(-c2ccc3ncc4c(c3c2)n(-c2ccc(N3CC[C@H](O)C3)nc2C)c(=O)n4C)c(OC)n1` [Example 32.3, 8-(2,4-Dimethoxy-pyrimidin-5-yl)-1-[6-((S)-3-hydroxy-pyrrolidin-1-yl)-2-methyl-pyridin-3-yl]-3-methyl-1,3-dihydro-imidazo[4,5-c]quinolin-2-one]: the IC50 came out at 0.08 µM.

As to `CNc1ncc(-c2ccc3ncc4c(c3c2)n(-c2ccc(N3CC[C@H](O)C3)nc2C)c(=O)n4C)cc1C(F)(F)F` [Example 32.5, 1-[6-((S)-3-Hydroxy-pyrrolidin-1-yl)-2-methyl-pyridin-3-yl]-3-methyl-8-(6-methylamino-5-trifluoromethyl-pyridin-3-yl)-1,3-dihydro-imidazo[4,5-c]quinolin-2-one], the IC50 was 0.011 µM.

`Cc1nc(N2CC[C@H](O)C2)ccc1-n1c(=O)n(C)c2cnc3ccc(-c4cncc(OC(C)C)c4)cc3c21` [Example 32.8, 1-[6-((S)-3-Hydroxy-pyrrolidin-1-yl)-2-methyl-pyridin-3-yl]-8-(5-isopropoxy-pyridin-3-yl)-3-methyl-1,3-dihydro-imidazo[4,5-c]quinolin-2-one]: the IC50 was 0.0637 µM.

Consider `Cc1nc(C(F)(F)F)ccc1-n1c(=O)n(C)c2cnc3ccc(-c4cncc(C(C)(C)O)c4)cc3c21` [Example 33.1, 8-[5-(1-Hydroxy-1-methyl-ethyl)-pyridin-3-yl]-3-methyl-1-(2-methyl-6-trifluoromethyl-pyridin-3-yl)-1,3-dihydro-imidazo[4,5-c]quinolin-2-one], for which the IC50 is 0.05 µM.

`CCNc1ncc(-c2ccc3ncc4c(c3c2)n(-c2ccc(N3CC[C@@H](O)C3)nc2C)c(=O)n4C)cc1C(F)(F)F` [Example 34.2, 8-(6-Ethylamino-5-trifluoromethyl-pyridin-3-yl)-1-[6-((R)-3-hydroxy-pyrrolidin-1-yl)-2-methyl-pyridin-3-yl]-3-methyl-1,3-dihydro-imidazo[4,5-c]quinolin-2-one]: the IC50 was determined as 0.0152 µM.

Consider `CCNc1ncc(-c2ccc3ncc4c(c3c2)n(-c2ccc(N3CC[C@@H](O)C3)nc2C)c(=O)n4C)cc1COCC` [Example 34.4, 8-(5-Ethoxymethyl-6-ethylamino-pyridin-3-yl)-1-[6-((R)-3-hydroxy-pyrrolidin-1-yl)-2-methyl-pyridin-3-yl]-3-methyl-1,3-dihydro-imidazo[4,5-c]quinolin-2-one], for which the IC50 was determined as 0.0279 µM.
